Test systems include HCT-116 colon; IGROV1 ovarian; KM12 colon; LOX IMVI melanoma; M14 melanoma; RPMI-8226 leukemia; SF-268 CNS; SK-MEL-28 melanoma; U251 CNS.
Holding throughout (experiment): DTP human tumour cell line panel, 48 h

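Growth conditions: 96-well plates. Treatment: test compound, 48 hours, 5 concentrations. Analysis: linear interpolation between bracketing concentrations; unreached endpoints set to highest concentration. Here, GI50 denotes the concentration required for 50% inhibition of growth. The concentration for full growth arrest is given as TGI.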

What is called TGI is the concentration at which net growth stops. A higher TGI goes with less potent growth arrest. Regarding `CN(C)c1ccc(/C=C(\NC(=O)c2ccccc2)c2nc3ccc4c(c3[nH]2)C(=O)c2ccccc2C4=O)cc1`, the TGI in the experiment with HCT-116 colon, in the experiment with IGROV1 ovarian, in the experiment on KM12 colon, in the experiment on LOX IMVI melanoma, in the experiment with M14 melanoma and in the experiment on RPMI-8226 leukemia was above 100 µM each time. In addition, the TGI in the experiment on SF-268 CNS, with SK-MEL-28 melanoma and with U251 CNS was above 100 µM throughout.
On to `COc1cc2c(c3c1c(=O)c1ccccc1n3C)C=CC(C)(C)O2`, for which the TGI in the experiment on HCT-116 colon, in the experiment on IGROV1 ovarian, with KM12 colon, with LOX IMVI melanoma, in the experiment with M14 melanoma and in the experiment on RPMI-8226 leukemia was above 100 µM each time. Moreover, the TGI in the experiment on SF-268 CNS, with SK-MEL-28 melanoma and in the experiment on U251 CNS was above 100 µM each time.
Consider `CCOc1cccc2c1N[S@@](=O)S2`, for which the TGI in the experiment on HCT-116 colon, in the experiment with IGROV1 ovarian, in the experiment with KM12 colon, in the experiment with LOX IMVI melanoma, in the experiment with M14 melanoma and in the experiment with RPMI-8226 leukemia was above 100 µM in each case. In addition, the TGI in the experiment on SF-268 CNS, with SK-MEL-28 melanoma and in the experiment on U251 CNS was above 100 µM throughout.
Turning to `CCOc1ccc(N=C2NC(=O)C(CC(=O)Nc3ccccc3[N+](=O)[O-])S2)cc1` (stereo not drawn), the TGI with HCT-116 colon, in the experiment with IGROV1 ovarian, with LOX IMVI melanoma, with M14 melanoma, in the experiment with RPMI-8226 leukemia and in the experiment with SF-268 CNS was above 100 µM in each case. For the same molecule, the TGI in the experiment with SK-MEL-28 melanoma and in the experiment on U251 CNS was above 100 µM throughout.
For `CC(=O)c1ccc(NC(=O)C(=O)C(C(=O)/C=C/c2ccccc2)C2OC(=O)c3ccccc32)cc1` (stereo not drawn), the TGI in the experiment with HCT-116 colon, in the experiment with IGROV1 ovarian, in the experiment on KM12 colon, in the experiment on LOX IMVI melanoma, with M14 melanoma and with RPMI-8226 leukemia was above 100 µM in each case. Besides, the TGI in the experiment on SF-268 CNS, in the experiment with SK-MEL-28 melanoma and with U251 CNS was above 100 µM throughout.
`COc1ccc(/C=C2\CCC(CCN(C)C)(C3=CCCC3)C2=O)cc1` (stereo not drawn): the TGI in the experiment with HCT-116 colon was found to be 29.1 µM; in the experiment on IGROV1 ovarian, 33.2 µM; in the experiment on KM12 colon it was 32.4 µM; in the experiment on LOX IMVI melanoma, 30.8 µM; with M14 melanoma, 28.3 µM; in the experiment on RPMI-8226 leukemia it was 48.7 µM. Moreover, the TGI was 40 µM in the experiment with SF-268 CNS, 35.1 µM in the experiment on SK-MEL-28 melanoma and 30.4 µM with U251 CNS.
For `CCOC(=O)C1Cc2ccc3c4c(ccc(c24)C1)CC(C(=O)OCC)C3`, the TGI in the experiment on HCT-116 colon, in the experiment with IGROV1 ovarian, in the experiment with KM12 colon, in the experiment with LOX IMVI melanoma, with M14 melanoma and in the experiment on RPMI-8226 leukemia was above 100 µM in each case. Moreover, the TGI in the experiment on SF-268 CNS, in the experiment with SK-MEL-28 melanoma and in the experiment on U251 CNS was above 100 µM in each case.
With `C[N+](C)(C)CC1CCCCC1=O` (stereo not drawn), the TGI with HCT-116 colon was 31.5 µM; with IGROV1 ovarian it was above 100 µM; in the experiment on KM12 colon, above 100 µM; with LOX IMVI melanoma, 27.5 µM; with M14 melanoma, 30.2 µM; in the experiment with RPMI-8226 leukemia it was 44.7 µM. In addition, the TGI was 31.6 µM in the experiment with SK-MEL-28 melanoma and above 100 µM in the experiment with U251 CNS.
For `COc1ccc(O)c(C(=O)CCC(=O)O)c1`, the TGI in the experiment on IGROV1 ovarian is above 100 µM; in the experiment on KM12 colon, above 100 µM; with LOX IMVI melanoma, above 100 µM; in the experiment on M14 melanoma, above 10 µM; with RPMI-8226 leukemia, above 100 µM; in the experiment on SF-268 CNS it was above 100 µM. In addition, the TGI in the experiment on SK-MEL-28 melanoma and in the experiment on U251 CNS was above 100 µM throughout.
For `CN/N=C(/c1nc2ccc([N+](=O)[O-])cc2[nH]c1=O)C(O)c1ccc(C(O)/C(=N\NC)c2nc3ccc([N+](=O)[O-])cc3[nH]c2=O)cc1` (stereo not drawn), the TGI in the experiment with HCT-116 colon, in the experiment with IGROV1 ovarian, in the experiment with KM12 colon, in the experiment with LOX IMVI melanoma, with M14 melanoma and in the experiment on RPMI-8226 leukemia was above 100 µM in each case. Also, the TGI in the experiment on SF-268 CNS, with SK-MEL-28 melanoma and in the experiment on U251 CNS was above 100 µM in each case.
As to `C#CCN(N=O)C(=O)ON1C(=O)CCC1=O`, the TGI with HCT-116 colon, in the experiment on IGROV1 ovarian, in the experiment with KM12 colon, in the experiment on LOX IMVI melanoma, with M14 melanoma and in the experiment on RPMI-8226 leukemia was above 100 µM throughout. The TGI in the experiment with SF-268 CNS, with SK-MEL-28 melanoma and in the experiment on U251 CNS was above 100 µM throughout.
Broadly, the GI50 is the concentration at which growth is held to half of that of the control. Regarding `COc1cc([C@@H]2c3cc4c(cc3[C@H](OC(C)=O)[C@H]3COC(=O)[C@@H]23)OCO4)cc(OC)c1OC`, the GI50 in the experiment on HCT-116 colon is 0.29 µM; in the experiment with IGROV1 ovarian, 0.401 µM; in the experiment on KM12 colon, 0.298 µM; in the experiment with LOX IMVI melanoma, 0.551 µM; in the experiment on M14 melanoma, 0.242 µM; in the experiment with RPMI-8226 leukemia, 0.445 µM. The GI50 with SF-268 CNS was 0.358 µM; in the experiment on SK-MEL-28 melanoma, 0.729 µM; in the experiment on U251 CNS, 0.377 µM. Also, the TGI was 2.63 µM in the experiment on HCT-116 colon; above 62.5 µM in the experiment with IGROV1 ovarian; above 100 µM in the experiment with LOX IMVI melanoma; 5.3 µM with M14 melanoma; above 100 µM in the experiment on RPMI-8226 leukemia; above 100 µM in the experiment on SK-MEL-28 melanoma. Further, in the experiment on U251 CNS, the TGI was above 100 µM.
Regarding `OC1=CN=COc2ccccc21`, the TGI with HCT-116 colon, with IGROV1 ovarian, in the experiment on KM12 colon, in the experiment on LOX IMVI melanoma, in the experiment with M14 melanoma and with RPMI-8226 leukemia was above 100 µM in each case. Besides, the TGI in the experiment on SF-268 CNS, with SK-MEL-28 melanoma and in the experiment with U251 CNS was above 100 µM each time.
On to `COc1cccc(-c2cc(=O)c3cc4c(cc3[nH]2)OCO4)c1`, for which the TGI is above 100 µM with HCT-116 colon; 6.12 µM in the experiment on IGROV1 ovarian; above 100 µM in the experiment with LOX IMVI melanoma; 2.95 µM in the experiment with M14 melanoma; above 100 µM in the experiment on RPMI-8226 leukemia; above 69.5 µM in the experiment on SF-268 CNS. Further, in the experiment on SK-MEL-28 melanoma, the TGI was above 100 µM.

The values are drawn from PubChem BioAssay (NCI).
